Blank lines part the entries; values can stand above or below the compound they belong to. Active and inactive are the calls of the source.
Key:
[1] = biological target: T1, Serine/threonine-protein phosphatase (Candida dubliniensis (strain CD36 / CBS 7987 / NCPF 3949 / NRRLY-17841) (Yeast), UniProt B9W6M3); experiment: calcineurin pathway inhibitors in yeast reporter, dose response, S. cerevisiae, CDRE-lacZ, luminescence, secondary (AID 2388); assay type: functional, cell-based;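 further: yeast reporter cells carrying a calcineurin-responsive lacZ construct stimulated with calcium chloride; luminescent beta-galactosidase reporter signal in whole cells rather than isolated phosphatase activity; potency for inhibition where a drop in reporter signal means calcineurin blockade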
T1 sequence (B9W6M3 whole entry): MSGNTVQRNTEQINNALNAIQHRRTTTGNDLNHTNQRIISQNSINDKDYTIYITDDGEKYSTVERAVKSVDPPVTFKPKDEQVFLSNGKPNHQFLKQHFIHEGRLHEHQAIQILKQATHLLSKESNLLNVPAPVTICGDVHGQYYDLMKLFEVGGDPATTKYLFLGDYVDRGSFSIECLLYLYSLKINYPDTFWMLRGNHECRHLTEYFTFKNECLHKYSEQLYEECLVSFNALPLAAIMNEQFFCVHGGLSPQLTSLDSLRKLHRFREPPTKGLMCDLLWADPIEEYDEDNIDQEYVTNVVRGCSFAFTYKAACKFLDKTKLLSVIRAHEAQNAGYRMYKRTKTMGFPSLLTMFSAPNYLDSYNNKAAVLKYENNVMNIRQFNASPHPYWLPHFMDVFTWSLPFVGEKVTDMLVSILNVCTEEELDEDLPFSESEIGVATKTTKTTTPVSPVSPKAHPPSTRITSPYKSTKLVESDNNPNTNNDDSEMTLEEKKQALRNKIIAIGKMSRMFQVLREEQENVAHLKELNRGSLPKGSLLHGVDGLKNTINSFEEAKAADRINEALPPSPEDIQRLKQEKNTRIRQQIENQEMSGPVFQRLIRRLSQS

[2] = Counterscreen for AddAB inhibitors: absorbance-based bacterial cell-based high throughput dose response assay for inhibitors of bacterial viability. [Related pubchem assays (depositor defined):AID435030, AID449728, AID449731, AID488942, AID488955, AID488956]; assay type: functional
[3] = biological target: Protein kinase C theta type (Homo sapiens, UniProt Q04759); experiment: Navigating the Kinome. Panel member name: PRKCQ; assay type: functional
Protein kinase C theta type, sequence (Q04759 whole entry): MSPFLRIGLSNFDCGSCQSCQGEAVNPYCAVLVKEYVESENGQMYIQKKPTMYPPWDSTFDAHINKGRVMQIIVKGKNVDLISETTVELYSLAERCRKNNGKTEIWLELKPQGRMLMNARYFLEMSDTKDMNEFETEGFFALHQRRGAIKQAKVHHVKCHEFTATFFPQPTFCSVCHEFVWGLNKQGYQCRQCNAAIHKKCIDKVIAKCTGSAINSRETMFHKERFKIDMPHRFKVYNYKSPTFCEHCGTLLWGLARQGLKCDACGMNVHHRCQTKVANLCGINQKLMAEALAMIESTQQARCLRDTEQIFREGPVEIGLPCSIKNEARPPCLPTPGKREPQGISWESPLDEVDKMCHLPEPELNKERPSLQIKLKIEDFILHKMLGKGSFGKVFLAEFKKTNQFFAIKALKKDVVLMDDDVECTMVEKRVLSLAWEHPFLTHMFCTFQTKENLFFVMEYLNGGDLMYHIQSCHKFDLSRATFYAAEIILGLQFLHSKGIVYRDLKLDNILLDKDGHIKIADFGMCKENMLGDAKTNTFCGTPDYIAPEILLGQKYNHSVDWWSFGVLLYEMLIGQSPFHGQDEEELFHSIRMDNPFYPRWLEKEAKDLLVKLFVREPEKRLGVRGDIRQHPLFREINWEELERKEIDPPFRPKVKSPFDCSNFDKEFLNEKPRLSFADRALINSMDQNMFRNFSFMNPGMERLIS

[4] = biological target: Cyclin-dependent kinase 9 (Homo sapiens, UniProt P50750); assay type: functional;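 further: value from the CDK9 entry of a kinome-spanning kinase panel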
Cyclin-dependent kinase 9, sequence (P50750 whole entry): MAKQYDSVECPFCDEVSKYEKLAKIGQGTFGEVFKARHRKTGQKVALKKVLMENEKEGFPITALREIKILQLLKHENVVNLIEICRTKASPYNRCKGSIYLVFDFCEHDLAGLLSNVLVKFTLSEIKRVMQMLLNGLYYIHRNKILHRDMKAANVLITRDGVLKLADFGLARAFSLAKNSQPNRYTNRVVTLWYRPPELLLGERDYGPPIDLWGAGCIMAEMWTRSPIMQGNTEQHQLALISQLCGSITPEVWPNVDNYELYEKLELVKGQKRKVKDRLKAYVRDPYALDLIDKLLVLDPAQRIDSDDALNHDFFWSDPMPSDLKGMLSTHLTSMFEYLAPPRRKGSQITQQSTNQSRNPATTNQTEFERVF

[5] = biological target: T2, 1-phosphatidylinositol 4,5-bisphosphate phosphodiesterase gamma-1 (Homo sapiens, UniProt P19174); experiment: Counterscreen for inhibitors of phospholipase C isozymes (PLC-B3): Fluorescence-based biochemical high throughput dose response assay to identify inhibitors of phospholipase C isozymes (PLC-gamma1).
T2 sequence (P19174 whole entry): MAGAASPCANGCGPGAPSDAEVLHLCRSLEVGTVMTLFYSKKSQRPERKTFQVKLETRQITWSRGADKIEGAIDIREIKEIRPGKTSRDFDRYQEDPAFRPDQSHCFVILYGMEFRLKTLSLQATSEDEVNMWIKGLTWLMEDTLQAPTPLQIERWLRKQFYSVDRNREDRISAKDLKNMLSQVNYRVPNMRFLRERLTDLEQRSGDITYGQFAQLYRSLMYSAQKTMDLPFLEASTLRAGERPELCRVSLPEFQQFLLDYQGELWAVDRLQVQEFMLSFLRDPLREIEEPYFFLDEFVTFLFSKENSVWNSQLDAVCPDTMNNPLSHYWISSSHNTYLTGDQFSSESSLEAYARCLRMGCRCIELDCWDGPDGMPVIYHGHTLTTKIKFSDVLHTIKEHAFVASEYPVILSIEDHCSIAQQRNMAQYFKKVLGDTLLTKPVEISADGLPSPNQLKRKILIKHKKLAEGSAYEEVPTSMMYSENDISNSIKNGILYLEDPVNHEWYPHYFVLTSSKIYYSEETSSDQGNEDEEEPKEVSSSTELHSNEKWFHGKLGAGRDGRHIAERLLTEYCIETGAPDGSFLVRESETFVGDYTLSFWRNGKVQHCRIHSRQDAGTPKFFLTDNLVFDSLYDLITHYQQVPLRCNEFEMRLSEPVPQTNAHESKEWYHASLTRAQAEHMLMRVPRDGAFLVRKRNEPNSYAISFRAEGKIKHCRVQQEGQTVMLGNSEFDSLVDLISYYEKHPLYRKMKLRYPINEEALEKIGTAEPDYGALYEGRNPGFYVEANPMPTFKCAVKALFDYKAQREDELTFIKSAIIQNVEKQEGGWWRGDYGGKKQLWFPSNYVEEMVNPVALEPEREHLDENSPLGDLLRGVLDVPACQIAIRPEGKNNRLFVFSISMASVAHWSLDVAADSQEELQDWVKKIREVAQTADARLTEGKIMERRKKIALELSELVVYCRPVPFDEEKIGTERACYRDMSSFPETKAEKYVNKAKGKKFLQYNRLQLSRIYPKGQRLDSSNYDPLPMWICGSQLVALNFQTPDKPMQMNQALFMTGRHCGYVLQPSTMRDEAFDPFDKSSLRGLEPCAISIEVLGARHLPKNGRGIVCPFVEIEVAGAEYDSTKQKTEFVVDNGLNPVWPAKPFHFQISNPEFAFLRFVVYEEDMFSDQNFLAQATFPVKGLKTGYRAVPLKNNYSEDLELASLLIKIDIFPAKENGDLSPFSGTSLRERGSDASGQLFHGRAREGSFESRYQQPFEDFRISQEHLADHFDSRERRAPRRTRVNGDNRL

[6] = miR-122 activators in hepatoma reporter cells, dose response, cell-based, Huh7 psiCHECK-miR122, Renilla luciferase, cherry-picked (AID 651956); assay type: functional;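 further: huh7 hepatoma cells stably carrying a psiCHECK-2 miR-122 sensor plasmid; renilla luciferase signal reporting endogenous miR-122 activity after 48 h compound exposure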

Compound: CCCC(=O)NC(c1cccs1)c1cc(Cl)c2cccnc2c1O (stereo unspecified)
- EC50 [1]: > 180 µM (inactive)
- IC50 [2]: > 119 µM (inactive)

- Ki [3]: 1 µM (active)
- Ki [4]: 0.251 µM (active)
Compound: O=C(Nc1cccc(C2Nc3ccc4ccccc4c3C3C=CCC32)c1)c1ccc(F)cc1 (stereo unspecified)

- IC50 [5]: > 1.51 µM (active)
Compound: O=C(O)CC(C(=O)O)N1C(=O)/C(=C/C=C/c2ccco2)SC1=S (stereo unspecified)

Compound: Cc1ccc(C(=O)OCn2ncc(Cl)c(Cl)c2=O)cc1
- AC50 [6]: 9.52 µM (active)
